Experiment [1] has as its system hepatopath. The following applies: previously found by the present assignee; cited from earlier work.
The test system of experiment [2] is CCl4 -induced hepatopath rats. As to the kind of experiment: Hepatopathy improving effects for CCl4-induced hepatopath rats (inhibition to the increase of transaminase in serum). The following applies: SD male rats, 100 mg/kg oral, 30 min before CCl4 (diluted fourfold with olive oil, peritoneally, 4 mg/kg), blood after 24 hours; for Serum GPT: Control 1 (no CCl4) 20, Control 2 (CCl4 alone) 1071; for Serum GOT: Control 1 (no CCl4) 89, Control 2 (CCl4 alone) 7719. It is filed as in vivo. How it is done: The hepatopathy improving effects of the compounds (I') of this invention for CCl4 -induced hepatopath rats were investigated by using, as an index, the inhibition to the increase of transaminase in serum. After SD male rats (7 weeks old; Japanese Charles River) had been fasted for 24 hours, test drugs were orally administered at 100 mg/kg. Thirty minutes later, a CCl4 solution (diluted fourfold with olive oil) was peritoneally administered at 4 mg/kg. The rats were fasted further for 24 hours and then anesthetized with 1 ml/kg of sodium pentobarbital. After a blood sample was collected from the descending abdominal aorta of each rat, the liver was enucleated and its wet weight was measured. Further, the GOT and GPT of a serum, which had been obtained from the blood sample so collected, were measured by an automatic chemical analyzer ("TBA-380", trade name; manufactured by Toshiba Corp.). Thick serums were measured after dilution in distilled water.
Note: Control 1 is a group not administered with CCl4 while Control
is a group administered with CCl4 alone.

Counter-ions that a name gives are not always drawn.

Regarding `COc1cc2c(c(OC)c1OC)-c1c(cc3c(c1OC)OCO3)CC(C)C(C)(O)C2` (stereo not shown) [gomisin A], the “improvement of GPT and GOT value of a hepatopath” value in experiment [1] was “can promptly improve the GPT and GOT value of a hepatopath”.

For the molecule `CC(C)OC(=O)C(=C1SC=CS1)c1ccc2c(c1)OCO2` [Example 3, isopropyl 2-(1,3-dithiol-2-ylidene)-2-[3,4-(methylenedioxy)phenyl]acetate], in experiment [2], the “Serum GPT” value is 557 U/1 and the “Serum GOT” value came out at 2573 U/1.

For the molecule `CC(C)OC(=O)C(C(=O)c1ccc2c(c1)OCO2)=C1SC=CS1` [Example 2, isopropyl 2-(1,3-dithiol-2-ylidene)-3-[3,4-(methylenedioxy)phenyl]-3-oxopropionate], in experiment [2], the “Serum GPT” value amounted to 100 U/1 and the “Serum GOT” value came out at 563 U/1.

Take `COC(=O)CNc1ccc2c(c1)OCO2` [Synthesis Example 2, methyl 2-[N-(3,4-methylenedioxyphenyl)amino]acetate]: in experiment [2], the “Serum GPT” value came to 310 U/1 and the “Serum GOT” value is 1400 U/1.

`CSC(=S)Nc1ccc2c(c1)OCO2` [Synthesis Example 1, methyl N-(3,4-methylenedioxyphenyl)dithiocarbamate]: in experiment [2], the “Serum GPT” value was 230 U/1 and the “Serum GOT” value came to 1027 U/1.

In the case of `c1csc(=Nc2ccc3c(c2)OCO3)s1` [Example 1, N,N-(1,3-dithiol-2-ylidene)-1,3-benzodioxol-5-amine], in experiment [2], the “Serum GPT” value is 74 U/1 and the “Serum GOT” value is 432 U/1.

Consider `CSCC(N)C(=O)Nc1ccc2c(c1)OCO2` (stereo not shown) [Example 5, [(3,4-methylenedioxy)aniline]-S-methylcysteinamide hydrochloride], for which, in experiment [2], the “Serum GPT” value was found to be 57 U/1 and the “Serum GOT” value came to 391 U/1.
